Like-named read-outs stand apart in the source and are kept apart here.
Tests used:
[1] = tested on: mouse leukemia L1210 cells; assay: Inhibitory activity against growth of mouse leukemia L1210 cells in vitro; assay type: cell-based
[2] = tested on: mouse leukemic cells L1210; settings: earlier work, U.S. Pat. No. 4,966,918; cited from earlier work
L1210 cells = assay: In vivo antileukemic effect (increased life span) in female BDF1 mice inoculated with L1210 cells
Procedure: On the other hand, the corresponding methyl carbamate ester IVc gave good ILS values of 71% and >250% at the dose levels of 100 and 200 mg/kg, respectively.

topoisomerse II = settings: Nelson et al. 1984; Pommier et al. 1984; cited from earlier work
DNA = settings: Denny and Wakelin, Cancer Res., 46:1717 (1986); cited from earlier work
[3] = Table 7, carbamate esters of formula IV, mouse L1210 cells in vitro, read-out: IC50
[4] = Table 6, acridine derivatives of formula III, growth of mouse leukemia L1210 cells, read-out: IC50

| Compound | IC50 [1, 3] [nM] | IC50 [1, 4] [nM] | further results |
| --- | --- | --- | --- |
| CNC(=O)OCCc1cccc(Nc2c3ccccc3nc3ccccc23)c1 [IVg, 9-[3'-(β-Methylaminocarbonyloxyethyl)anilino]acridine] | 5700 | – | – |
| OCCc1cccc(Nc2c3ccccc3nc3ccccc23)c1 [IIIe] | – | 6.2 | – |
| COc1ccc2nc3ccc(C)cc3c(Nc3cccc(CO)c3)c2c1 [IIIk, 9-(3'-Hydroxymethyl)anilino-2-methoxy-7-methylacridine] | – | 5800 | – |
| COc1ccc2c(Nc3ccc(CO)cc3)c3ccccc3nc2c1 [IIIr, 9-(4'-Hydroxymethyl)anilino-3-methoxyacridine] | – | 29 | – |
| COc1ccc2nc3ccc(OC)cc3c(Nc3ccc(COC(=O)NC(C)C)cc3)c2c1 [IVp, 9-[4'-(Isopropylaminocarbonyloxymethyl)anilino]-2,7-dimethoxyacridine] | 6600 | – | – |
| CNC(=O)OCc1cccc(Nc2c3cc(OC)ccc3nc3ccc(OC)cc23)c1 [IVm, 9-[3'-(Methylaminocarbonyloxymethyl)anilino]-2,7-dimethoxyacridine] | 5000 | – | – |
| OCc1cccc(Nc2c3ccccc3nc3ccccc23)c1 [IIIb, 9-(3'-Hydroxymethyl)anilinoacridine] | – | 14 | – |
| COc1ccc2c(Nc3cccc(CO)c3)c3ccccc3nc2c1 [IIIj, 9-(3'-Hydroxymethyl)anilino-3-methoxyacridine] | – | 0.063 | – |
| COc1ccc2nc3cc(C)ccc3c(Nc3ccc(CO)cc3)c2c1 [IIIt, 9-(4'-Hydroxymethyl)anilino-2-methoxy-6-methylacridine] | – | 650 | – |
| COc1ccc2nc3cc(C)ccc3c(Nc3cccc(CO)c3)c2c1 [IIIl, 9-(3'-Hydroxymethyl)anilino-2-methoxy-6-methylacridine] | – | 920 | – |
| Cc1cc(O)c2c(c1)C(=O)c1cccc(O)c1C2=O [Compound 1A, chrysophanol] | – | – | activity against mouse leukemic cells L1210 in tissue culture [2]: practically inactive |
| CNC(=O)OCc1ccc(Nc2c3cc(OC)ccc3nc3ccc(OC)cc23)cc1 [IVo, 9-[4'-(Methylaminocarbonyloxymethyl)anilino]-2,7-dimethoxyacridine] | 3600 | – | – |
| COc1cc(O)c2c(c1)C(=O)c1cc(CN(CCCl)CCCl)cc(O)c1C2=O [Compound 3B] | – | – | activity against mouse leukemic cells L1210 in tissue culture [2]: potent inhibitory activity |
| CNC(=O)OCc1ccccc1Nc1c2ccccc2nc2ccccc12 [IVa, 9-[2'-(Methylaminocarbonyloxymethyl)anilino]acridine] | 8400 | – | – |
| Cc1ccc2c(Nc3cccc(CO)c3)c3ccccc3nc2c1 [IIIh, 9-(3'-Hydroxymethyl)anilino-3-methylacridine] | – | 0.39 | – |
| COc1ccc2nc3ccccc3c(Nc3ccc(CO)cc3)c2c1 [IIIq, 9-(4'-Hydroxymethyl)anilino-2-methoxyacridine] | – | 620 | – |
| CC(C)NC(=O)OCc1ccccc1Nc1c2ccccc2nc2ccccc12 [IVb, 9-[2'-(Isopropylaminocarbonyloxymethyl)anilino]acridine] | 9300 | – | – |
| COc1ccc2nc3ccc(OC)cc3c(Nc3cccc(CO)c3)c2c1 [IIIm, 9-(3'-Hydroxymethyl)anilino-2,7-dimethoxyacridine] | – | 3400 | – |
| CC(C)NC(=O)OCc1ccc(Nc2c3ccccc3nc3ccccc23)cc1 [IVf, 9-[4'-(Isopropylaminocarbonyloxymethyl)anilino]acridine] | 18 | – | – |
| CNC(=O)OCc1cccc(Nc2c3ccccc3nc3cc(OC)ccc23)c1 [IVk, 9-[3'-(Methylaminocarbonyloxymethyl)anilino]-3-methoxyacridine] | 1700 | – | – |
| CC(C)NC(=O)OCCc1ccc(Nc2c3ccccc3nc3ccccc23)cc1 [IVj, 9-[4'-(β-Isopropylaminocarbonyloxyethyl)anilino]acridine] | 48 | – | – |
| Cc1ccc2c(Nc3ccc(CO)cc3)c3ccccc3nc2c1 [IIIp, 9-(4'-Hydroxymethyl)anilino-3-methylacridine] | – | 6.7 | – |

| Compound | IC50 [1, 3] [nM] | IC50 [1, 4] [nM] | further results |
| --- | --- | --- | --- |
| O=C1c2cccc(O)c2C(=O)c2c(O)cc(CN(CCCl)CCCl)cc21 [Compound 3A, 3-[N,N-bis(2-chloroethyl)-amino]methyl-1,8-dihydroxy-9,10-anthraquinone] | – | – | activity against mouse leukemic cells L1210 in tissue culture [2]: potent inhibitory activity |
| CC(C)NC(=O)OCCc1cccc(Nc2c3ccccc3nc3ccccc23)c1 [IVh, 9-[3'-(β-Isopropylaminocarbonyloxyethyl)anilino]acridine] | 0.91 | – | – |
| COc1ccc2nc3ccc(C)cc3c(Nc3ccc(CO)cc3)c2c1 [IIIs, 9-(4'-Hydroxymethyl)anilino-2-methoxy-7-methylacridine] | – | 58 | – |
| OCCc1ccccc1Nc1c2ccccc2nc2ccccc12 [IIId] | – | 6500 | – |
| CNC(=O)OCc1ccc(Nc2c3ccccc3nc3ccccc23)cc1 [IVe, 9-[4'-(Methylaminocarbonyloxymethyl)anilino]acridine] | 38 | – | – |
| CC(C)NC(=O)OCc1cccc(Nc2c3ccccc3nc3ccccc23)c1 [IVd, 9-[3'-(Isopropylaminocarbonyloxymethyl)anilino]acridine] | 9.1 | – | – |
| COc1ccc2c(Nc3cccc(CCO)c3)c3ccccc3nc2c1 [IIIn, 9-[3'-(β-hydroxyethyl)anilino]-3-methoxyacridine] | – | 0.023 | – |
| COc1ccc2c(Nc3ccc(CCO)cc3)c3ccccc3nc2c1 [IIIv] | – | 18 | – |
| OCc1ccc(Nc2c3ccccc3nc3ccccc23)cc1 [IIIc, 9-(4'-Hydroxymethyl)anilinoacridine] | – | 95 | ILS (increased life span) (L1210 cells; 100 and 150 mg/kg dose level, female BDF1 mice inoculated with 1.0×10^6 L1210 cells): 29%; IC50 ([1]; Mus musculus, L1210, quoted in text from Table 6, read-out: IC50 value): 95 nM |
| COc1ccc2nc3ccc(OC)cc3c(Nc3cccc(COC(=O)NC(C)C)c3)c2c1 [IVn, 9-[3'-(isopropylaminocarbonyloxymethyl)-anilino]-2,7-dimethoxyacridine] | 4000 | – | – |
| Cc1ccc2nc3ccccc3c(Nc3ccc(CO)cc3)c2c1 [IIIo, 9-(4'-Hydroxymethyl)anilino-2-methylacridine] | – | 120 | – |
| COc1cc(NS(C)(=O)=O)ccc1Nc1c2ccccc2nc2ccccc12 [amsacrin] | – | – | DNA cleavage mediated by topoisomerse II (topoisomerse II): appears to induce DNA cleavage; intercalation into DNA (DNA): reversible |
| COc1ccc2c(Nc3cccc(COC(=O)NC(C)C)c3)c3ccccc3nc2c1 [IVl, 9-[3'-(Isopropylaminocarbonyloxymethyl)anilino]-3-methoxyacridine] | 890 | – | – |
| CNC(=O)OCc1cccc(Nc2c3ccccc3nc3ccccc23)c1 [IVc, 9-[3'-(Methylaminocarbonyloxymethyl)anilino]acridine] | 4600 | – | ILS (increased life span) (L1210 cells; 100 mg/kg, mice inoculated with 1.0×10^6 L1210 cells): 71%; ILS (increased life span) (L1210 cells; 200 mg/kg, mice inoculated with 1.0×10^6 L1210 cells): > 250% |
| Cc1ccc2nc3ccccc3c(Nc3cccc(CO)c3)c2c1 [IIIg, 9-(3'-Hydroxymethyl)anilino-2-methylacridine] | – | 850 | – |
| COc1ccc2nc3ccc(OC)cc3c(Nc3ccc(CO)cc3)c2c1 [IIIu, 9-(4'-Hydroxymethyl)anilino-2,7-dimethoxyacridine] | – | 3400 | – |
| OCCc1ccc(Nc2c3ccccc3nc3ccccc23)cc1 [IIIf] | – | 9.9 | – |
| OCc1ccccc1Nc1c2ccccc2nc2ccccc12 [IIIa, 9-(2'-Hydroxymethyl)anilinoacridine] | – | 43000 | – |
| Cc1cc(O)c2c(c1)C(=O)c1cc(O)cc(O)c1C2=O [Compound 1B, emodin] | – | – | activity against mouse leukemic cells L1210 in tissue culture [2]: practically inactive |
| COc1ccc2nc3ccccc3c(Nc3cccc(CO)c3)c2c1 [IIIi, 9-(3'-Hydroxymethyl)anilino-2-methoxyacridine] | – | 3500 | – |
| CNC(=O)OCCc1ccc(Nc2c3ccccc3nc3ccccc23)cc1 [IVi, 9-[4'-(β-Methylaminocarbonyloxyethyl)anilino]acridine] | 3.9 | – | – |
| COc1ccc2nc3ccc(OC)cc3c(Nc3ccc(CCO)cc3)c2c1 [IIIw] | – | 690 | – |

Reference: patent US5229395A, “Potential anticancer agents derived from acridine” (Sloan-Kettering Institute For Cancer Research, priority 1991, dated 1993)
